Measured values taken from patent publication US11602534B2, “Pyrimidine derivative kinase inhibitors” (HEFEI INSTITUTES OF PHYSICAL SCIENCE, CHINESE ACADEMY OF …, priority 2017, dated 2023).

Tests used:
BaF3 = experiment: Proliferation of BaF3 cells, CCK8 cell viability assay; format: cell-based; details: Mus musculus, 72 hours
Source text: (§1) In this example the following cells were used: […] (purchased from ATCC), mouse P210-BaF3 (stably expressing BCR-ABL mutant activated kinase), mouse P210/T315I-BaF3 (stably expressing BCR-ABL/T315I mutant activated kinase), mouse FLT3-ITD-BaF3 (stably expressing FLT3/ITD mutant activated kinase), mouse TEL-FLT3-BaF3 (stably expressing FLT3 kinase), mouse TEL-cKIT-BaF3 (stably expressing cKIT kinase), mouse BaF3-tel/T670I-cKit (stably expressing cKIT/T670I mutant activated kinase), mouse Tel-VEGFR2-BaF3 (stably expressing VEGFR2 kinase), mouse Tel-PDGFRα-BaF3 (stably expressing PDGFRα kinase), mouse Tel-PDGFRβ-BaF3 (stably expressing PDGFRβ kinase), mouse Tel-RET-BaF3 (stably expressing RET kinase). The above cell lines were all constructed by our laboratory according to the following method: the kinase region sequences of human P210, P210/T315I, FLT3/ITD, FLT3, cKIT, cKIT/T670I, VEGFR2, PDGFRα, PDGFRβ, RET were respectively amplified by PCR, and inserted into MSCV-Puro vectors having N-terminal TEL or TPR fragments (Clontech). The vectors were stably transfected into mouse BaF3 cells by means of retrovirus, and the growth factor IL-3 were removed, eventually obtaining cell lines that depend on transferred protein P210, P210/T315I, FLT3/ITD, FLT3, cKIT, cKIT/T670I, VEGFR2, PDGFRα, PDGFRβ, or RET.
(§2) GI50 (unit: μM) was calculated by quantifying the number of living cells based on quantitative measurement of reductive dehydrogenase in living cells with CCK8 cell viability assay kit (Bestbio, China).

P210-BaF3 = experiment: Proliferation of P210-BaF3 cells, CCK8 cell viability assay; format: cell-based; details: Mus musculus, 72 hours, stably expressing BCR-ABL mutant activated kinase
Source text: as §1, §2

P210/T315I-BaF3 = experiment: Proliferation of P210/T315I-BaF3 cells, CCK8 cell viability assay; format: cell-based; details: Mus musculus, 72 hours, stably expressing BCR-ABL/T315I
Source text: as §1, §2

Tel-cKit-BaF3 = experiment: Proliferation of Tel-cKit-BaF3 cells, CCK8 cell viability assay; format: cell-based, mouse; details: Mus musculus; 72 hours, CCK8; stably expressing cKIT kinase
Source text: as §1, §2

Tel-cKit/T670I-BaF3 = experiment: Proliferation of Tel-cKit/T670I-BaF3 cells, CCK8 cell viability assay; format: cell-based; details: Mus musculus, 72 hours, stably expressing cKIT/T670I
Source text: as §1, §2

Tel-FLT3-BaF3 = experiment: Proliferation of Tel-FLT3-BaF3 cells, CCK8 cell viability assay; format: cell-based; details: Mus musculus, 72 hours, stably expressing FLT3 kinase
Source text: as §1, §2

FLT3-ITD-BaF3 = experiment: Proliferation of FLT3-ITD-BaF3 cells, CCK8 cell viability assay; format: cell-based; details: Mus musculus, 72 hours, stably expressing FLT3/ITD
Source text: as §1, §2

TEL-PDGFRα-BaF3 = experiment: Proliferation of TEL-PDGFRα-BaF3 cells, CCK8 cell viability assay; format: cell-based; details: Mus musculus, 72 hours, stably expressing PDGFRα kinase
Source text: as §1, §2

TEL-PDGFRβ-BaF3 = experiment: Proliferation of TEL-PDGFRβ-BaF3 cells, CCK8 cell viability assay; format: cell-based; details: Mus musculus, 72 hours, stably expressing PDGFRβ kinase
Source text: as §1, §2

TEL-VEGFR2-BaF3 = experiment: Proliferation of TEL-VEGFR2-BaF3 cells, CCK8 cell viability assay; format: cell-based; details: Mus musculus, 72 hours, stably expressing VEGFR2 kinase
Source text: as §1, §2

GI50 (BaF3)	GI50 (P210-BaF3)	GI50 (P210/T315I-BaF3)	GI50 (Tel-cKit-BaF3)	GI50 (Tel-cKit/T670I-BaF3)	GI50 (Tel-FLT3-BaF3)	GI50 (FLT3-ITD-BaF3)	GI50 (TEL-PDGFRα-BaF3)	GI50 (TEL-PDGFRβ-BaF3)	GI50 (TEL-VEGFR2-BaF3)	Compound
> 10 µM	> 10 µM	9.07 µM	0.924 µM	3.27 µM	0.025 µM	0.011 µM	0.005 µM	0.014 µM	–	CC(=O)Nc1cc(Oc2ccc(NC(=O)Cc3cccc4ccccc34)cc2)ncn1 [Example 163, N-[4-(6-acetylamino-pyrimidin-4-yloxy)-phenyl]-2-naphth-1-yl-acetamide]
> 10 µM	> 10 µM	–	> 10 µM	4.03 µM	2.27 µM	0.162 µM	0.005 µM	0.004 µM	–	CC(=O)Nc1cc(Oc2ccc(CC(=O)Nc3ccccc3)cc2)ncn1 [Example 37, 2-[4-(6-acetylamino-pyrimidin-4-yloxy)-phenyl]-N-phenyl-acetamide]
> 10 µM	–	–	0.301 µM	0.081 µM	0.004 µM	0.01 µM	0.001 µM	0.004 µM	0.013 µM	CC(=O)Nc1cc(Oc2ccc(CC(=O)Nc3cccc(C(F)(F)F)c3)cc2)ncn1 [Example 33, 2-[4-(6-acetylamino-pyrimidin-4-yloxy)-phenyl]-N-(3-trifluoromethyl-phenyl)-acetamide]
> 10 µM	> 10 µM	> 10 µM	> 10 µM	> 10 µM	1.41 µM	0.444 µM	0.084 µM	0.938 µM	–	CC(=O)Nc1cc(Nc2ccc(NC(=O)Cc3ccccc3C(F)(F)F)cc2)ncn1 [Example 164, N-[4-(6-acetylamino-pyrimidin-4-ylamino)-phenyl]-2-(2-trifluoromethyl-phenyl)-acetamide]
> 10 µM	–	–	0.589 µM	0.036 µM	0.017 µM	0.004 µM	< 0.001 µM	0.002 µM	–	CC(=O)Nc1cc(Oc2ccc(CC(=O)Nc3ccc(C(F)(F)F)cc3)cc2)ncn1 [Example 36, 2-[4-(6-acetylamino-pyrimidin-4-yloxy)-phenyl]-N-(4-trifluoromethyl-phenyl)-acetamide]
7.21 µM	–	8.49 µM	0.354 µM	8.85 µM	0.169 µM	0.058 µM	0.026 µM	0.115 µM	0.398 µM	Cc1ccc(NC(=O)Nc2ccc(Oc3cc(N(C)CCO)ncn3)cc2)cc1C(F)(F)F [Example 87, 1-(4-{6-[(2-hydroxy-ethyl)-methyl-amino]-pyrimidin-4-yloxy}-phenyl)-3-(4-methyl-3-trifluoromethyl-phenyl)-urea]
> 10 µM	> 10 µM	> 10 µM	0.462 µM	4.61 µM	0.052 µM	0.021 µM	0.001 µM	0.012 µM	–	CC(=O)Nc1cc(Nc2ccc(NC(=O)Cc3cccc(C(F)(F)F)c3)cc2)ncn1 [Example 165, N-[4-(6-acetylamino-pyrimidin-4-ylamino)-phenyl]-2-(3-trifluoromethyl-phenyl)-acetamide]
> 10 µM	> 10 µM	> 10 µM	0.313 µM	0.915 µM	0.113 µM	0.019 µM	0.004 µM	0.006 µM	–	CC(=O)Nc1cc(Oc2ccc(NC(=O)Cc3ccc4ccccc4c3)cc2)ncn1 [Example 162, N-[4-(6-acetylamino-pyrimidin-4-yloxy)-phenyl]-2-naphth-2-yl-acetamide]
> 10 µM	> 10 µM	> 10 µM	1.7 µM	> 10 µM	0.105 µM	0.024 µM	0.005 µM	0.035 µM	–	CC(=O)Nc1cc(Oc2ccc(NC(=O)Cc3cccc(Cl)c3)cc2)ncn1 [Example 169, N-[4-(6-acetylamino-pyrimidin-4-yloxy)-phenyl]-2-(3-chloro-phenyl)-acetamide]
> 10 µM	–	–	6.93 µM	> 10 µM	0.744 µM	0.158 µM	0.102 µM	0.156 µM	2.83 µM	CC(=O)Nc1cc(Oc2ccc(NC(=O)Cc3cc(Cl)ccc3C(F)(F)F)cc2)ncn1 [Example 2, N-[4-(6-acetylamino-pyrimidin-4-yloxy)-phenyl]-2-(5-chloro-2-trifluoromethyl-phenyl)-acetamide]
> 10 µM	> 10 µM	–	> 10 µM	6.6 µM	0.925 µM	0.067 µM	0.203 µM	0.406 µM	–	CC(=O)Nc1cc(Oc2ccc(CC(=O)Nc3cccc(Cl)c3C(F)(F)F)cc2)ncn1 [Example 35, 2-[4-(6-acetylamino-pyrimidin-4-yloxy)-phenyl]-N-(3-chloro-2-trifluoromethyl-phenyl)-acetamide]
> 10 µM	> 10 µM	> 10 µM	> 10 µM	> 10 µM	3.16 µM	1.22 µM	0.137 µM	0.925 µM	–	CC(=O)Nc1cc(Oc2ccc(NC(=O)C(C)c3ccc(C)cc3)cc2)ncn1 (centres unmarked) [Example 170, N-[4-(6-acetylamino-pyrimidin-4-yloxy)-phenyl]-2-(4-methyl-phenyl)-propanamide]
> 10 µM	> 10 µM	> 10 µM	7.01 µM	> 10 µM	0.228 µM	0.074 µM	0.024 µM	0.116 µM	–	CC(=O)Nc1cc(Oc2ccc(NC(=O)Cc3ccccc3C)cc2)ncn1 [Example 161, N-[4-(6-acetylamino-pyrimidin-4-yloxy)-phenyl]-2-(2-methyl-phenyl)-acetamide]
8.92 µM	–	–	1.73 µM	0.99 µM	0.46 µM	0.3 µM	0.021 µM	0.136 µM	0.35 µM	Cc1ccc(NC(=O)Nc2ccc(Oc3cc(N4CCN[C@H](C)C4)ncn3)cc2)cc1C(F)(F)F [Example 106, (R)-1-(4-methyl-3-(trifluoromethyl)phenyl)-3-(4-((6-(3-methylpiperazin-1-yl)pyrimidin-4-yl)oxy)phenyl)urea]
> 10 µM	> 10 µM	–	> 10 µM	8.31 µM	0.632 µM	0.213 µM	0.035 µM	0.466 µM	2.85 µM	CC(=O)Nc1cc(Oc2ccc(CC(=O)Nc3ccc(C)cc3C(F)(F)F)cc2)ncn1 [Example 38, 2-[4-(6-acetylamino-pyrimidin-4-yloxy)-phenyl]-N-(4-methyl-2-trifluoromethyl-phenyl)-acetamide]
> 10 µM	> 10 µM	> 10 µM	2.69 µM	4.23 µM	0.099 µM	0.042 µM	0.006 µM	0.033 µM	–	CC(=O)Nc1cc(Oc2ccc(NC(=O)Cc3ccc(F)c(F)c3)cc2)ncn1 [Example 168, N-[4-(6-acetylamino-pyrimidin-4-yloxy)-phenyl]-2-(3,4-difluoro-phenyl)-acetamide]
> 10 µM	> 10 µM	> 10 µM	9.84 µM	7.94 µM	0.513 µM	0.126 µM	0.041 µM	0.112 µM	–	CCCC(=O)Nc1cc(Oc2ccc(NC(=O)Cc3ccccc3C(F)(F)F)cc2)ncn1 [Example 167, N-(6-{4-[2-(2-trifluoromethyl-phenyl)-acetylamino]-phenoxy}-pyrimidin-4-yl)-butyramide]
> 10 µM	> 10 µM	–	7.88 µM	> 10 µM	0.347 µM	0.18 µM	0.057 µM	0.134 µM	4.26 µM	CC(=O)Nc1cc(Oc2ccc(CC(=O)N(C)c3ccc(Br)cc3)cc2)ncn1 [Example 39, 2-[4-(6-acetylamino-pyrimidin-4-yloxy)-phenyl]-N-(4-bromo-phenyl)-N-methyl-acetamide]
